For 19 molecules, IC50 results are on record in patent publication US11420958B2, “Aryl and heteroaryl substituted indole compounds” (BRISTOL-MYERS SQUIBB COMPANY, priority 2017, dated 2022).

What all share (type): cell-based
Test [1] addresses human TLR8 (Homo sapiens (Human), UniProt Q9NR97). Briefly: TLR8 inhibition reporter assay (HEK-Blue, SEAP). The conditions noted are these: HEK-Blue cells overexpressing human TLR8, R848 15.9 μM stimulation. The method in brief:
(§1)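 Cells are treated with compound over a 0.05 nM–50 μM final range for 30 min at room temperature before agonist addition: gardiquimod at 7.5 μM for TLR7, R848 at 15.9 μM for TLR8, ODN2006 at 5 nM for TLR9. SEAP is measured after 22 h at 37 °C.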
A general note: In a reporter assay the amount or activity of a reporter protein is the signal.

Test [2] deals with human TLR9 (Homo sapiens (Human), UniProt Q9NR96). Briefly: TLR9 inhibition reporter assay (HEK-Blue, SEAP). As to conditions: HEK-Blue cells overexpressing human TLR9, ODN2006 5 nM stimulation. In short, it runs like this: as §1
Chain of human TLR9 (Q9NR96 26-1032): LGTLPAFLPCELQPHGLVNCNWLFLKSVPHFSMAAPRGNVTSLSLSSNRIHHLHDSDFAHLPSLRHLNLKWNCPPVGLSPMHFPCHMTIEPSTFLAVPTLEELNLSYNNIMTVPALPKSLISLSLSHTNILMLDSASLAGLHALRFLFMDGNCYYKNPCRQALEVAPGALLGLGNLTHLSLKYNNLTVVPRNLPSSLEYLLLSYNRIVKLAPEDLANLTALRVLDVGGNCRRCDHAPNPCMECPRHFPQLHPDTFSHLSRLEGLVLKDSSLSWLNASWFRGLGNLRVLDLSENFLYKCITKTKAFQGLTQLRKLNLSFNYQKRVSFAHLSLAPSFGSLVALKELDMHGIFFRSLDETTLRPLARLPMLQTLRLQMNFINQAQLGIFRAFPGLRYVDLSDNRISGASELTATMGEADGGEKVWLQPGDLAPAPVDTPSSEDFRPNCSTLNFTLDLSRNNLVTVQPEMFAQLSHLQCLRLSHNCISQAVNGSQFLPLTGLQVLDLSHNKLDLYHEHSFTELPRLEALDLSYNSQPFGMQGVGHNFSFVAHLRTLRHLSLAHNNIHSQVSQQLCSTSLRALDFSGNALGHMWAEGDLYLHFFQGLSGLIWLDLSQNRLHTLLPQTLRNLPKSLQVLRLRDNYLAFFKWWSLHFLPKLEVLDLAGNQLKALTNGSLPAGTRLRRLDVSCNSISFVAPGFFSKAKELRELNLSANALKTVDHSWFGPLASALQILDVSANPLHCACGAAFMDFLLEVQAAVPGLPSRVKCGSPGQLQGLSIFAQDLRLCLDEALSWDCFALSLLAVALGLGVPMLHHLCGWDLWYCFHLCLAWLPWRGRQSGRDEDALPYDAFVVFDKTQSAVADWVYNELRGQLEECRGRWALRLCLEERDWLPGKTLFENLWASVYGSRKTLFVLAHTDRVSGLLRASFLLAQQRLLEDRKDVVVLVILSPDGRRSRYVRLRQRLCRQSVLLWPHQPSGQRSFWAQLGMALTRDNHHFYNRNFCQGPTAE
Test [3] has as its target human TLR7 (Homo sapiens (Human), UniProt Q9NYK1). Briefly: TLR7 inhibition reporter assay (HEK-Blue, SEAP). As to conditions: HEK-Blue cells overexpressing human TLR7, gardiquimod 7.5 μM stimulation. In short, it runs like this: as §1

Molecules are shown by their SMILES.

Chain of human TLR8 (Q9NR97 27-1041): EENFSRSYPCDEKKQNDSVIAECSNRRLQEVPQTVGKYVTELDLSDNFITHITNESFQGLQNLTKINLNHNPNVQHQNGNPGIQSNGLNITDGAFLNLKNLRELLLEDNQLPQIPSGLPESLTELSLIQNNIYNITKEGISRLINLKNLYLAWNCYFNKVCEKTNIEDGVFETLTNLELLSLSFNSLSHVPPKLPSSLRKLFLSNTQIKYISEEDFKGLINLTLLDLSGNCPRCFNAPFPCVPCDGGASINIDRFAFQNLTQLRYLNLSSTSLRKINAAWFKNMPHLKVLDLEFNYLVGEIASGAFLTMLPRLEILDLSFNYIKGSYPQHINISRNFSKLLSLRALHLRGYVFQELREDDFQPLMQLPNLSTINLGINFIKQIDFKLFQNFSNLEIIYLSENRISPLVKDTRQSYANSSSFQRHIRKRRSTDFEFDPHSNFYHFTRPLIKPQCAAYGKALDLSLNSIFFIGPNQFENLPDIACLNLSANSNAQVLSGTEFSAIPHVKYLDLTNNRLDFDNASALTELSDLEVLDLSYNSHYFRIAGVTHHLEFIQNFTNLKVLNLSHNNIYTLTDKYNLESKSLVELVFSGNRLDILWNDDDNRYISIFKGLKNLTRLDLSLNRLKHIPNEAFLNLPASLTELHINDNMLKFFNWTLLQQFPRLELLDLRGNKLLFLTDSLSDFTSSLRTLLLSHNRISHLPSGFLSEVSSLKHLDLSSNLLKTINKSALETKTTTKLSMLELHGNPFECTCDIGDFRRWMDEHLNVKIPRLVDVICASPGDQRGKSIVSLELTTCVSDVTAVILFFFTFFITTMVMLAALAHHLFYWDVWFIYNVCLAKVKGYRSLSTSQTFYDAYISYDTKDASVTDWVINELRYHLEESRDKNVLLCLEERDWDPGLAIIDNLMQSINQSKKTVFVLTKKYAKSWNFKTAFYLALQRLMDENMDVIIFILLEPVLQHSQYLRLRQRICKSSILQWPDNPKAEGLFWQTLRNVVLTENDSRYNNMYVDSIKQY
Chain of human TLR7 (Q9NYK1 27-1049): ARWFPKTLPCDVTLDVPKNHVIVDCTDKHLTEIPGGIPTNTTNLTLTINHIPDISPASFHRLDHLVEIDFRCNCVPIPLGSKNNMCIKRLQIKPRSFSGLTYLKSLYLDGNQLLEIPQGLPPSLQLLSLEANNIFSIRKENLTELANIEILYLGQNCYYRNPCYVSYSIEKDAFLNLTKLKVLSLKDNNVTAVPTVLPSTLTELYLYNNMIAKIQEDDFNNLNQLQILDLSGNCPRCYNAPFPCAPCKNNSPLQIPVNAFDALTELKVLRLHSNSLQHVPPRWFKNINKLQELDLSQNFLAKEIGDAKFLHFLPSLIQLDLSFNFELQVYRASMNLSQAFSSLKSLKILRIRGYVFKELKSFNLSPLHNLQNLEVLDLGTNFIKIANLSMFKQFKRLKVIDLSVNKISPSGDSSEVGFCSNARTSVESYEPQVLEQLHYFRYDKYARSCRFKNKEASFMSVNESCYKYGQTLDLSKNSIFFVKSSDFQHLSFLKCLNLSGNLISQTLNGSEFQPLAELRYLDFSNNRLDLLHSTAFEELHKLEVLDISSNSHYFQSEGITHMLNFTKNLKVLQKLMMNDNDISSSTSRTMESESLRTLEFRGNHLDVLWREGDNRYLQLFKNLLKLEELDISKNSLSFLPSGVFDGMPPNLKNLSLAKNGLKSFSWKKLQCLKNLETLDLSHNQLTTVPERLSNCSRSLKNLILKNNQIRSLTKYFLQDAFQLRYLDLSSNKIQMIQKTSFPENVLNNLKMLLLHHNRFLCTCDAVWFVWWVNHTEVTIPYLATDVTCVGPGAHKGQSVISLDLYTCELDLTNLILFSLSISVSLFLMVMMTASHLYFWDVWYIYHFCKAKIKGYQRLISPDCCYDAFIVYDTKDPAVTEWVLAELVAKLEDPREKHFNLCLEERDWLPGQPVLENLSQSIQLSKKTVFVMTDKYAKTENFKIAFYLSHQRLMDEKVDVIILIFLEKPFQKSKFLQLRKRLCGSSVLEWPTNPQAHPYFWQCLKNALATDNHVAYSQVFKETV

Consider `COc1ccc(-c2[nH]c3ccc(-c4ccc(C5=CCN(C)CC5)cc4)cc3c2C)cc1OC` [Example 376, 2-(3,4-dimethoxyphenyl)-3-methyl-5-(4-(1-methyl-1,2,3,6-tetrahydropyridin-4-yl)phenyl)-1H-indole], for which the IC50 – broadly, the midpoint of a concentration-inhibition curve – was found to be 487 nM in test [1], 2410 nM in test [2] and 2880 nM in test [3].

Turning to `Cc1cc(-c2[nH]c3ccc(-c4nnc(C(=O)N5CC6CNCC6C5)o4)cc3c2C(C)C)ccn1` (stereo not drawn) [Example 60, (hexahydropyrrolo[3,4-c]pyrrol-2(1H)-yl)(5-(3-isopropyl-2-(2-methylpyridin-4-yl)-1H-indol-5-yl)-1,3,4-oxadiazol-2-yl)methanone], the IC50 in test [1] was 6 nM; in test [2] it was 283 nM; in test [3], 194 nM.

Turning to `COc1ccc(-c2[nH]c3ccc(-c4nnc(C(=O)N5CCN(c6cnccn6)CC5)o4)cc3c2C(C)C)cc1OC` [Example 97, (5-(2-(3,4-dimethoxyphenyl)-3-isopropyl-1H-indol-5-yl)-1,3,4-oxadiazol-2-yl)(4-(pyrazin-2-yl)piperazin-1-yl)methanone], the 50% inhibitory concentration (IC50) in test [1] is 239 nM; in test [2], greater than 50000 nM; in test [3], 936 nM.

Take `COc1ccc(-c2[nH]c3ccc(-c4ccc(NCCCN(C)C)cc4)cc3c2C(C)C)cc1OC` [Example 400, N1-(4-(2-(3,4-dimethoxyphenyl)-3-isopropyl-1H-indol-5-yl)phenyl)-N3,N3-dimethylpropane-1,3-diamine]: the half-maximal inhibitory concentration (IC50) was found to be 35 nM in test [1], 2660 nM in test [2] and 165 nM in test [3].

Turning to `CC(C)c1c(-c2ccnc3[nH]ncc23)[nH]c2ccc(-c3ccc4ncccc4c3)cc12` [Example 469, 6-(3-isopropyl-2-(1H-pyrazolo[3,4-b]pyridin-4-yl)-1H-indol-5-yl)quinoline], the half-inhibitory concentration (IC50) was 129 nM in test [1], greater than 50000 nM in test [2] and 606 nM in test [3].

With `COc1ccc(-c2[nH]c3ccc(-c4cccc(C(=O)NCCNC(C)=O)c4)cc3c2CC(F)(F)F)cc1OC` [Example 26, N-(2-acetamidoethyl)-3-(2-(3,4-dimethoxyphenyl)-3-(2,2,2-trifluoroethyl)-1H-indol-5-yl)benzamide], the figures for the IC50 in test [1], in test [2] and in test [3] were 73 nM, 32900 nM and 1000 nM, respectively.

Regarding `Cc1cc(-c2[nH]c3ccc(-c4nnc(CCN5CCCCC5)o4)cc3c2C(C)C)ccn1` [Example 260, 2-(3-isopropyl-2-(2-methylpyridin-4-yl)-1H-indol-5-yl)-5-(2-(piperidin-1-yl)ethyl)-1,3,4-oxadiazole], the 50% inhibitory concentration (IC50) in test [1] was 2.2 nM; in test [2] it was 1230 nM; in test [3], 133 nM.

Regarding `Cc1cc(-c2[nH]c3ccc(-c4cnc(C5CCNCC5)s4)cc3c2C(C)C)ccn1` [Example 199, 5-(3-isopropyl-2-(2-methylpyridin-4-yl)-1H-indol-5-yl)-2-(piperidin-4-yl)thiazole], the values for the IC50 in test [1], in test [2] and in test [3] were 4.9 nM, 1100 nM and 37 nM, respectively.

For `CCc1c(-c2ccc(OC)c(OC)c2)[nH]c2ccc(-c3noc(C4CCN(C(C)C)CC4)n3)cc12` [Example 445, 3-(2-(3,4-dimethoxyphenyl)-3-ethyl-1H-indol-5-yl)-5-(1-isopropylpiperidin-4-yl)-1,2,4-oxadiazole], the IC50 in test [1] amounted to 37 nM; in test [2], 1850 nM; in test [3], 338 nM.

In the case of `Cc1cc(-c2[nH]c3ccc(-c4nc5c(s4)CN(C(=O)CN(C)C)CC5)cc3c2C(C)C)cc(C)n1` [Example 363, 2-(dimethylamino)-1-(2-(2-(2,6-dimethylpyridin-4-yl)-3-isopropyl-1H-indol-5-yl)-6,7-dihydrothiazolo[5,4-c]pyridin-5(4H)-yl)ethan-1-one], the IC50 in test [1] stood at 2.3 nM; in test [2], 151 nM; in test [3] it was 0.8 nM.

In the case of `COc1ccc(-c2[nH]c3ccc(-c4ccc5c(c4)CCNC5)cc3c2C(C)C)cc1OC` [Example 136, 6-(2-(3,4-dimethoxyphenyl)-3-isopropyl-1H-indol-5-yl)-1,2,3,4-tetrahydroisoquinoline], the values for the concentration for half-maximal inhibition (IC50) in test [1], in test [2] and in test [3] were 38 nM, 6880 nM and 57 nM, respectively.

Take `Cc1cc(-c2[nH]c3ccc(-c4cn5cc(C)nc5cc4F)cc3c2C(C)C)cc(C)n1` [Example 348, 6-(2-(2,6-dimethylpyridin-4-yl)-3-isopropyl-1H-indol-5-yl)-7-fluoro-2-methylimidazo[1,2-a]pyridine]: the 50% inhibitory concentration (IC50) in test [1] stood at 20 nM; in test [2], 3640 nM; in test [3], 3.7 nM.

Take `CNCCN1CCn2nc(-c3ccc4[nH]c(-c5ccnc(C)c5)c(C(C)C)c4c3)c(C(=O)NC)c2C1` [Example 219, 2-(3-isopropyl-2-(2-methylpyridin-4-yl)-1H-indol-5-yl)-N-methyl-5-(2-(methylamino)ethyl)-4,5,6,7-tetrahydropyrazolo[1,5-a]pyrazine-3-carboxamide]: the IC50 in test [1] turned out to be 147 nM; in test [2], 2600 nM; in test [3], 163 nM.

For `Cc1cc(-c2[nH]c3ccc(-c4nnc(C5CN6CCC5CC6)o4)cc3c2C(C)C)ccn1` (stereo not drawn) [Example 222, 2-(3-isopropyl-2-(2-methylpyridin-4-yl)-1H-indol-5-yl)-5-(quinuclidin-3-yl)-1,3,4-oxadiazole], the half-inhibitory concentration (IC50) amounted to 3.2 nM in test [1], 1240 nM in test [2] and 34 nM in test [3].

For `CC(C)c1c(-c2ccnc3[nH]ncc23)[nH]c2ccc(-c3nc(C(=O)N4CCCN(C)CC4)co3)cc12` [Example 233, (2-(3-isopropyl-2-(1H-pyrazolo[3,4-b]pyridin-4-yl)-1H-indol-5-yl)oxazol-4-yl)(4-methyl-1,4-diazepan-1-yl)methanone], the concentration for half-maximal inhibition (IC50) in test [1] was found to be 2.5 nM; in test [2], 2080 nM; in test [3] it was 195 nM.

`C#CCNCc1nnc(-c2ccc3[nH]c(-c4ccc(OC)c(OC)c4)c(C(C)C)c3c2)o1` [Example 110, N-((5-(2-(3,4-dimethoxyphenyl)-3-isopropyl-1H-indol-5-yl)-1,3,4-oxadiazol-2-yl)methyl)prop-2-yn-1-amine]: the IC50 in test [1] is 734 nM; in test [2], greater than 50000 nM; in test [3], 917 nM.

With `Cc1cc(-c2[nH]c3ccc(-c4nnc([C@@H](N)C5CC5)o4)cc3c2C(C)C)ccn1` [Example 268, (S)-cyclopropyl(5-(3-isopropyl-2-(2-methylpyridin-4-yl)-1H-indol-5-yl)-1,3,4-oxadiazol-2-yl)methanamine], the IC50 in test [1] was 2.8 nM; in test [2], 33800 nM; in test [3] it was 214 nM.

As for `COc1ccc(-c2[nH]c3ccc(-c4cccc(C(=O)N5CCN(c6ccncc6)CC5)c4)cc3c2CC(F)(F)F)cc1OC` [Example 36, (3-(2-(3,4-dimethoxyphenyl)-3-(2,2,2-trifluoroethyl)-1H-indol-5-yl)phenyl)(4-(pyridin-4-yl)piperazin-1-yl)methanone], the concentration for half-maximal inhibition (IC50) in test [1] came to 102 nM; in test [2] it was 1800 nM; in test [3] it was 287 nM.

For the molecule `COc1ccc(-c2[nH]c3ccc(-c4nnc(C5CCN(C(=O)OC(C)(C)C)CC5)o4)cc3c2C(C)C)cc1OC` [Example 19, tert-butyl 4-(5-(2-(3,4-dimethoxyphenyl)-3-isopropyl-1H-indol-5-yl)-1,3,4-oxadiazol-2-yl)piperidine-1-carboxylate], the IC50 in test [1] is 484 nM; in test [2], greater than 50000 nM; in test [3], 2510 nM.
